Test results as given in PMC9177597, “Structural basis of substrate recognition and translocation by human very long-chain fatty acid transporter ABCD1” (Nature Communications, 2022).
Where a chain is given by its changes, count along the chain named.

Tests used:
Assay in all cases: substrate-stimulated ATPase assay (colorimetric Pi release)
Type in all cases: biochemical
chABCD1 (chimeric ABCD1) [1] = target: T1, chABCD1 (chimeric ABCD1) (Homo sapiens, UniProt P33897, DEL694-745)
T1 construct: single polypeptide: N-terminal FLAG tag, PMP-4 residues 1-65 replacing human ABCD1 residues 1-63, then human ABCD1 64-745; HEK293F; homodimer; LMNG/CHS for assays, digitonin for cryo-EM; with PMP-4 (peroxisomal membrane protein related, ABCD1 homolog, Caenorhabditis elegans; N-terminal segment fused to the target chain)
T1 sequence (P33897 64-693): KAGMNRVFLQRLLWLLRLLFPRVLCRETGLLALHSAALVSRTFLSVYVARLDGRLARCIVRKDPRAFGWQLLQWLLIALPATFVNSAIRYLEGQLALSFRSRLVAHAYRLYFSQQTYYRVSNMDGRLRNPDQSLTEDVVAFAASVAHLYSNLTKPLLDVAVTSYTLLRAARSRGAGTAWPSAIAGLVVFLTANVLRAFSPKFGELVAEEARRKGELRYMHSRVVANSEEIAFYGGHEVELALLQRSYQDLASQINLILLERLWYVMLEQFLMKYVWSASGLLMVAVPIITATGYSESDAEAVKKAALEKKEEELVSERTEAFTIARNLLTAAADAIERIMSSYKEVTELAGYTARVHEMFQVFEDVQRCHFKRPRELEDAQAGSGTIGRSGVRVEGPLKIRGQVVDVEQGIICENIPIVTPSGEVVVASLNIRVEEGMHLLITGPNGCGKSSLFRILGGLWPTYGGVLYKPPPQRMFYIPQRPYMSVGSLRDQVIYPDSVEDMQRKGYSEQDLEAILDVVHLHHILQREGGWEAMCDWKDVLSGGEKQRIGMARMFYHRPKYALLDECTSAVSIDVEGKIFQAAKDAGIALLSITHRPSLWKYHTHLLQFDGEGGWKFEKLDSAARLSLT

chABCD1 (chimeric ABCD1) [2] = target: T2, chABCD1 (chimeric ABCD1) (Homo sapiens, UniProt P33897, K336A); settings: 5 μM C22:0-CoA, 2 mM ATP, 2 mM MgCl2, LMNG + CHS, pH 7.5, 37 °C
T2 construct: single polypeptide: N-terminal FLAG tag, PMP-4 residues 1-65 replacing human ABCD1 residues 1-63, then human ABCD1 64-745; HEK293F; homodimer; LMNG/CHS for assays, digitonin for cryo-EM; with PMP-4 (peroxisomal membrane protein related, ABCD1 homolog, Caenorhabditis elegans; N-terminal segment fused to the target chain)
T2 sequence (P33897 64-745 K336A): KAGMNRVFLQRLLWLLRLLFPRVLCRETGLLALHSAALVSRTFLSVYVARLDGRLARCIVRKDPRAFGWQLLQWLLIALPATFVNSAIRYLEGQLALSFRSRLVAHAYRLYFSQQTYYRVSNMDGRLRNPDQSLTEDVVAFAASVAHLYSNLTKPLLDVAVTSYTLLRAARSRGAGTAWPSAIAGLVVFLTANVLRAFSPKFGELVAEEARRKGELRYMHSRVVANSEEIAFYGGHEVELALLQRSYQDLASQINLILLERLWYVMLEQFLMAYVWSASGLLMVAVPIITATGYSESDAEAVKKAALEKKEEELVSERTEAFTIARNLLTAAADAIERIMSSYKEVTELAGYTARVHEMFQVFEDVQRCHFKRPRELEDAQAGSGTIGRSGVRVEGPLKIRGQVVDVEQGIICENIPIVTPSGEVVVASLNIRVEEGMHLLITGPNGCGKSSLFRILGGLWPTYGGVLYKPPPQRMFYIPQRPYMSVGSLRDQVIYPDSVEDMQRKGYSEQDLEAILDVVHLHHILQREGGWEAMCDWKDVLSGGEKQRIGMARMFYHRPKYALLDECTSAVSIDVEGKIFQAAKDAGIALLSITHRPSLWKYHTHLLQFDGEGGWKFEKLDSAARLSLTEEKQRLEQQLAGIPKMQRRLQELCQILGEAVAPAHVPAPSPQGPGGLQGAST

chABCD1 (chimeric ABCD1) [3] = target: T3, chABCD1 (chimeric ABCD1) (Homo sapiens, UniProt P33897, Y337F); settings: 5 μM C22:0-CoA, 2 mM ATP, 2 mM MgCl2, LMNG + CHS, pH 7.5, 37 °C
T3 construct: single polypeptide: N-terminal FLAG tag, PMP-4 residues 1-65 replacing human ABCD1 residues 1-63, then human ABCD1 64-745; HEK293F; homodimer; LMNG/CHS for assays, digitonin for cryo-EM; with PMP-4 (peroxisomal membrane protein related, ABCD1 homolog, Caenorhabditis elegans; N-terminal segment fused to the target chain)
T3 sequence (P33897 64-745 Y337F): T2 sequence (P33897 64-745 K336A) with A273K, Y274F

chABCD1 (chimeric ABCD1) [4] = target: T4, chABCD1 (chimeric ABCD1) (Homo sapiens, UniProt P33897, R152A); settings: 5 μM C22:0-CoA, 2 mM ATP, 2 mM MgCl2, LMNG + CHS, pH 7.5, 37 °C
T4 construct: single polypeptide: N-terminal FLAG tag, PMP-4 residues 1-65 replacing human ABCD1 residues 1-63, then human ABCD1 64-745; HEK293F; homodimer; LMNG/CHS for assays, digitonin for cryo-EM; with PMP-4 (peroxisomal membrane protein related, ABCD1 homolog, Caenorhabditis elegans; N-terminal segment fused to the target chain)
T4 sequence (P33897 64-745 R152A): T2 sequence (P33897 64-745 K336A) with R89A, A273K

CCCCCCCCCCCCCCCCCCCCCC(=O)SCCNC(=O)CCNC(=O)[C@H](O)C(C)(C)COP(=O)(O)OP(=O)(O)OC[C@H]1O[C@@H](n2cnc3c(N)ncnc32)[C@H](O)[C@@H]1OP(=O)(O)O [C22:0-CoA]
EC50 (chABCD1 (chimeric ABCD1) [1]): ~4 µM
relative ATPase activity (chABCD1 (chimeric ABCD1) [2]): displayed significantly decreased substrate-simulated ATPase activity, compared to the wild-type
relative ATPase activity (chABCD1 (chimeric ABCD1) [3]): displayed significantly decreased substrate-simulated ATPase activity, compared to the wild-type
relative ATPase activity (chABCD1 (chimeric ABCD1) [4]): displayed significantly decreased substrate-simulated ATPase activity, compared to the wild-type
